The structures appear in SMILES notation. ≈ marks a conversion by molar mass, not a printed value.

Data set [1] has as its system SARS Coronavirus 2 recombinant with NanoLuc (SARS-CoV2-NLuc). Nature of the data set: organism not typed. It is filed as cell-based. As to conditions: 48 h.
The format of data set [2] is in vitro ADME. The note with it: 2 μM. As to the method:
Duplicate aliquots of plasma were warmed to 37° C. and the metabolic reactions initiated by the addition of test compound (6 μL of 0.1 mM DMSO stock) or plasma stability standard (GS-7340) to obtain a final substrate concentration of 2 μM. At 0.05, 0.5, 1, 2, 3 and 4 hr, 25 μL aliquots of the reaction mixture were transferred to plates containing 225 μl of IS/Q quenching solution. After quenching, the plates were centrifuged at 3000×g for 30 minutes, and 150 μL supernatant was diluted with 150 μL water. Aliquots (10 μL) of the diluted supernatant were analyzed on a Thermo Q-Exactive mass spectrometer as described below. Quantification of test compounds and controls was performed by analyte/internal standard peak area ratio (PAR) values measured on a Thermo Q-Exactive mass spectrometer coupled to a Dionex UltiMate 3000 HPLC with a Leap Technologies HTC PAL autosampler. The column used was a Thermo Hypersil GOLD (1.9 μm particle size, 2.1×50 mm). Mobile phase A consisted of […] formic acid in water. Mobile phase B consisted of 0.1% (v/v) formic acid in acetonitrile. Elution of analytes was achieved by a series of linear gradients of acetonitrile in water containing 0.1% (v/v) formic acid. The mass spectrometer was calibrated on a weekly basis and mass tolerance of 5 ppm was used.

Data set [3] is described as follows: in vitro. It is filed as in vitro ADME. The note with it: human, s9, pH 7.4. As to the method:
Duplicate aliquots of test compound or positive control substrate (GS-7340) were added to PMSF-free Intestinal S9 fractions diluted with 100 mM phosphate buffered saline, pH 7.4, to obtain a protein concentration of 1.0 mg/mL. The S9 metabolic reactions were initiated by the addition of the substrates to the S9 reaction mixture to a final concentration of 2 μM. At 0, 10, 20, 30, 60 and 120 min, 25 μL aliquots of the reaction mixture were transferred to plates containing 225 μl of IS/Q solution. After quenching, the plates were centrifuged at 3000×g for 30 minutes, and 150 μL aliquots of each supernatant were diluted with 150 μL water. Aliquots (10 μL) of the diluted supernatant were analyzed on a Thermo Q-Exactive mass spectrometer as described below. Quantification of test compounds and controls was performed by analyte/internal standard peak area ratio (PAR) values measured on a Thermo Q-Exactive mass spectrometer coupled to a Dionex UltiMate 3000 HPLC with a Leap Technologies HTC PAL autosampler. The column used was a Thermo Hypersil GOLD (1.9 μm particle size, 2.1×50 mm). Mobile phase A consisted of […] formic acid in water. Mobile phase B consisted of 0.1% (v/v) formic acid in acetonitrile. Elution of analytes was achieved by a series of linear gradients of acetonitrile in water containing 0.1% (v/v) formic acid. The mass spectrometer was calibrated on a weekly basis and mass tolerance of 5 ppm was used.

The subject of data set [4] is Respiratory syncytial virus recombinant with luciferase (RSV-Luc5). As to the kind of experiment: microbe, parasite or virus in culture. As to conditions: human respiratory syncytial virus, NHBE, 72 h, read-out: RSV NHBE EC50 (nM). The class given is cell-based.
Data set [5] relates to Caco-2 cells (clone C2BBel). Nature of the data set: CACO-2 permeability. It is filed as in vitro ADME. The note with it: donor pH 6.5, receiver pH 7.4; for DM Caco2 A to B: forward (A to B); for DM Caco2 B to A: reverse (B to A). The procedure: Pre-plated Caco-2 cells (clone C2BBel) were obtained from Sigma-Aldrich, Inc. (Atlanta, GA). Cell monolayers were grown to confluence on collagen-coated, microporous, polycarbonate membranes in 24-well transwell plates for 21 days. The permeability assay buffer in donor wells was Hanks' balanced salt solution (HBSS) containing 10 mM HEPES and 15 mM glucose at a pH of 6.5 containing 200 μM BNPP. The receiver wells used HBSS buffer containing 10 mM HEPES and 15 mM glucose at a pH of 7.4 and supplemented with 1% BSA. After an initial equilibration with transport buffer, TEER values were read to test membrane integrity. The experiment was started by the addition of buffers containing test compounds, 200 μl and 1000 μl in the apical and basolateral chamber, respectively. At 0- and 2-hour post dose, 10 μL was sampled from donor compartment and was immediately diluted in 190 μL of 20% methanol. At 1 and 2 hours post dose, 100 μl of solution was taken from the receiver compartments and was immediately diluted in 100 μl of 20% methanol. Removed buffer was replaced with fresh buffer and a correction was applied to all calculations for the removed material. Each compound was tested in 2 separate replicate wells for each condition. All samples were then extracted with 400 μl 100% acetonitrile with internal standard to precipitate protein. Cells were dosed on the apical or basolateral side to determine forward (A to B) and reverse (B to A) permeability. To test for non-specific binding and compound instability, the total amount of drug was quantitated at the end of the experiment and compared to the material present in the original dosing solution as a percent recovery. Formation of the parent compound (GS-441524; Reference Compound A) was monitored in assay wells dosed with the prodrug. Samples were analyzed by LC-MS/MS.

A short description of data set [6]: in vitro. The class given is cell-based. The note with it: human. The procedure:
Cytotoxicity of the compounds was determined in uninfected cells using the cell viability reagent in a similar fashion as described before for other cell types (Cihlar et al., Antimicrob Agents Chemother. 2008, 52(2):655-65). HEp-2 (1.5×10^3 cells/well) and MT-4 (2×10^3 cells/well) cells were plated in 384-well plates and incubated with the appropriate medium containing 3-fold serially diluted compound ranging from 15 nM to 100,000 nM. Cells were cultured for 4-5 days at 37° C. Following the incubation, the cells were allowed to equilibrate to 25° C., and cell viability was determined by adding Cell-Titer Glo viability reagent. The mixture was incubated for 10 min, and the luminescence signal was quantified using an Envision plate reader. Untreated cell and cells treated at 2 μM puromycin (Sigma, St. Louis, MO) serve as […] cell viability control, respectively. The percent of cell viability was calculated for each tested compound concentration relative to the 0% and 100% controls and the CC50 value was determined by non-linear regression as a compound concentration reducing the cell viability by […].

Another data set in a line: physchem. The class given is physicochemical. The note with it: pH 7, aqueous buffer, thermodynamic from solid. The procedure:
The aqueous solubility of compounds over a time of 24 hours was assessed. Solubility was determined at ambient temperature in a 50 mM phosphate buffered pH7 solution with 150 mM NaCl (to achieve isotonicity). Solids were added to the buffered solution in 1.5-mL Eppendorf tubes, vortexed for 1 minute, then agitated for 24 hours in an Eppendorf ThermoMixer C. To determine concentration in solution, the suspensions were centrifuged for 15 min at 15,000 rpm. Supernatants were diluted to a volume of 1 mL with 30:70 v/v acetonitrile:water. All diluted supernatants were analyzed by UPLC using a Waters Acquity UPLC with a PDA UV detector.

The nature of data set [7]: in vitro. It is filed as in vitro ADME. As to conditions: human, s9, pH 7.4. The procedure:
Duplicate aliquots of test compound or positive control substrate (GS-7340) were added to S9 stock diluted with 100 mM potassium phosphate buffer, pH 7.4, to obtain a protein concentration of 2.4 mg/mL. The S9 metabolic reactions were initiated by the addition of the substrates to the S9 reaction mixture to a final concentration of 2 μM. At 2, 12, 25, 45, 65 and 90 min, 25 μL aliquots of the reaction mixture were transferred to plates containing 225 μl of IS/Q solution. After quenching, the plates were centrifuged at 3000×g for 30 minutes, and 150 μL aliquots of each supernatant were diluted with 150 μL water. Aliquots (10 μL) of the diluted supernatant were analyzed on a Thermo Q-Exactive mass spectrometer as described below. Quantification of test compounds and controls was performed by analyte/internal standard peak area ratio (PAR) values measured on a Thermo Q-Exactive mass spectrometer coupled to a Dionex UltiMate 3000 HPLC with a Leap Technologies HTC PAL autosampler. The column used was a Thermo Hypersil GOLD (1.9 μm particle size, 2.1×50 mm). Mobile phase A consisted of […] formic acid in water. Mobile phase B consisted of 0.1% (v/v) formic acid in acetonitrile. Elution of analytes was achieved by a series of linear gradients of acetonitrile in water containing 0.1% (v/v) formic acid. The mass spectrometer was calibrated on a weekly basis and mass tolerance of 5 ppm was used.
The source holds these as a separate data set.
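Wherever CC50 is given: uninfected MT-4 cells over 4-5 days by CellTiter-Glo.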

On to `COC(=O)c1cn(C(=O)OC[C@H]2O[C@@](C#N)(c3ccc4c(N)ncnn34)[C@H](O)[C@@H]2O)c2ccccc12` [Compound 1, O1-[[(2R,3S,4R,5R)-5-(4-aminopyrrolo[2,1-f][1,2,4]triazin-7-yl)-5-cyano-3,4-dihydroxy-tetrahydrofuran-2-yl]methyl]O3-methyl indole-1,3-dicarboxylate], for which the EC50 in data set [1] turned out to be 4.73 µM. Besides, the “STA Human Plasma 37” value in data set [2] worked out at 645.34. Moreover, in “in vitro [3]”, the half-life at 2 μM amounted to 123 min. Also, the EC50 in data set [4] amounted to 5590 nM. For the same compound, in data set [5], the “DM Caco2 A to B” value is 0.69 and the “DM Caco2 B to A” value was 12.34. The compound also came in with a CC50 in the data set “in vitro [6]” of over 50 µM. The thermodynamic solubility at 24 h in the data set “physchem” amounted to 100 µg/mL (≈ 203 µM).

Consider `CC(=O)O[C@H]1[C@@H](OC(C)=O)[C@](C#N)(c2ccc3c(N)ncnn23)O[C@@H]1COC(=O)N1CCCCCCC1` [Compound 19, [(2R,3R,4R,5R)-3,4-diacetoxy-5-(4-aminopyrrolo[2,1-f][1,2,4]triazin-7-yl)-5-cyano-tetrahydrofuran-2-yl]methyl azocane-1-carboxylate], for which the results for the EC50 in data set [1] and in data set [4] were 31.5 µM and 18000 nM, respectively. Besides, in data set [2], the “STA Human Plasma 37” value amounted to 14.703. Further, the figures for the half-life at 2 μM in “in vitro [3]” and in the data set “in vitro [7]” were 0.764 min and at most 2 min, respectively. In addition, in data set [5], the “DM Caco2 A to B” value was found to be 6.33. For the same compound, the “DM Caco2 B to A” value in data set [5] was determined as 13.32. The compound further returned a CC50 in the data set “in vitro [6]” of over 50 µM. The compound further gave a solubility (thermodynamic) at 24 h in the data set “physchem” of 110 µg/mL (≈ 214 µM).

Turning to `N#C[C@@]1(c2ccc3c(N)ncnn23)O[C@H](COC(=O)N2CCCCC2)[C@@H](O)[C@H]1O` [Compound 13, [(2R,3S,4R,5R)-5-(4-aminopyrrolo[2,1-f][1,2,4]triazin-7-yl)-5-cyano-3,4-dihydroxy-tetrahydrofuran-2-yl]methyl piperidine-1-carboxylate], the EC50 in data set [1] is over 50 µM; in data set [4], over 50000 nM. For the same compound, the “STA Human Plasma 37” value in data set [2] turned out to be 1584. Also, the half-life at 2 μM in “in vitro [3]” was at least 789 min; in “in vitro [7]”, at least 592 min. The “DM Caco2 A to B” value in data set [5] was found to be 0.3. In data set [5], the “DM Caco2 B to A” value was 6.39. In addition, the CC50 in “in vitro [6]” is over 50 µM. This compound yielded a solubility (thermodynamic) at 24 h in “physchem” of 4480 µg/mL (≈ 11100 µM).

Take `CC(C)NC(=O)OC[C@H]1O[C@@](C#N)(c2ccc3c(N)ncnn23)[C@H](O)[C@@H]1O` [Compound 8, [(2R,3S,4R,5R)-5-(4-aminopyrrolo[2,1-f][1,2,4]triazin-7-yl)-5-cyano-3,4-dihydroxy-tetrahydrofuran-2-yl]methyl N-isopropylcarbamate]: the EC50 in data set [1] was 31.9 µM; in data set [4] it was over 50000 nM. Also, the half-life at 2 μM in “in vitro [3]” is 784 min; in “in vitro [7]”, at least 592 min. The “DM Caco2 A to B” value in data set [5] is recorded as 0.11. Further, the “DM Caco2 B to A” value in data set [5] came out at 0.79. In addition, the CC50 in “in vitro [6]” was over 50 µM. In the data set “physchem”, this compound yielded a solubility (thermodynamic) at 24 h of over 13000 µg/mL.

For `N#C[C@@]1(c2ccc3c(N)ncnn23)O[C@H](COC(=O)n2cc(C(=O)OC3CCOCC3)c3ccccc32)[C@@H](O)[C@H]1O` [Compound 2, O1-[[(2R,3S,4R,5R)-5-(4-aminopyrrolo[2,1-f][1,2,4]triazin-7-yl)-5-cyano-3,4-dihydroxy-tetrahydrofuran-2-yl]methyl]O3-tetrahydropyran-4-yl indole-1,3-dicarboxylate], in data set [1], the EC50 amounted to 5.52 µM. Further, the “STA Human Plasma 37” value in data set [2] was 1055.4. The compound further displayed a half-life at 2 μM in the data set “in vitro [3]” of 476 min. The EC50 in data set [4] turned out to be 14100 nM. Also, in data set [5], the “DM Caco2 A to B” value is 0.33 and the “DM Caco2 B to A” value worked out at 13.49. This compound also gave a CC50 in “in vitro [6]” of over 50 µM. This compound also returned a solubility (thermodynamic) at 24 h in “physchem” of 140 µg/mL (≈ 249 µM).

`COC(=O)[C@H]1COC(=O)N1C(=O)OC[C@H]1O[C@@](C#N)(c2ccc3c(N)ncnn23)[C@H](O)[C@@H]1O` [Compound 5, O3-[[(2R,3S,4R,5R)-5-(4-aminopyrrolo[2,1-f][1,2,4]triazin-7-yl)-5-cyano-3,4-dihydroxy-tetrahydrofuran-2-yl]methyl]04-methyl (4R)-2-oxooxazolidine-3,4-dicarboxylate]: the EC50 in data set [1] is 20.4 µM; in data set [4], 20100 nM. Also, in data set [2], the “STA Human Plasma 37” value is 77.22. Further, the half-life at 2 μM in “in vitro [3]” came to 83.4 min; in the data set “in vitro [7]” it was 256 min. Also, the “DM Caco2 A to B” value in data set [5] amounted to 0.04. Moreover, the “DM Caco2 B to A” value in data set [5] was 0.08. Moreover, the CC50 in “in vitro [6]” was over 50 µM.
